Laboratory results taken from patent publication US20050043260A1, “Wnt as a factor for cardiac myogenesis” (BAYLOR COLLEGE OF MEDICINE, priority 2003, published 2005).

Columns and labels:
Type in all cases: cell-based
P19CL6 cells [1] = experiment: Spontaneous beating of differentiating cells
Method: (§1) Cells were grown on 10 cm dishes in α-minimal MEM; Invitrogen) supplemented with 10% fetal bovine serum (FBS) (Hyclone), streptomycin. To induce differentiation, cells were seeded at a 1:40 dilution with α-MEM, DMSO. For each experiment, cardiomyocyte differentiation was apparent in the control spontaneous beating, starting day 9 to 10. To obtain stable transformants incorporating GSK-vector control, cells were transfected using Lipofectamine2000 (Invitrogen) and medium containing 500 μg/ml Geniticin (Invitrogen). After 10-14 day, 60 colonies were picked and screened by RT-PCR. To detect exogenous GSK-3β selectively, the 5′ primer corresponded to the N terminus and the 3′ primer to the H. influenza hemagglutinin epitope tag.

β-catenin = β-catenin and phospho-β-catenin Western blot / immunostaining in differentiating cells
Method: (§2) Cells were seeded on glass cover slips and cultured with or without DMSO for 3 days. Cells were fixed with 4% paraformaldehyde and penneablized with 0.2% Triton X-100 for 5 min. To detect phosphorylated β-catenin, cells were incubated overnight with rabbit antibody to phoshpo-β-catenin (Ser33/Ser37/Thr4l; Cell Signaling) in Tris-buffered saline, 3% bovine serum albumin, then for 1 hr with goat antibody to rabbit IgG conjugated with Alexa Fluor 488 (Molecular Probes). Immunostaining for sarcomeric myosin heavy chains (MHC) was performed using fluorescein isothiocyanate-conjugated MF20 antibody (Oh et al., 2001). Nuclei were counterstained with DAPI.
Cells were seeded on 6-well dishes (1.67×10^6 cells/well) and cultivated with or without 1% DMSO and 500 ng/ml Fx/FC chimeric protein. After 3 days, cells were harvested in phosphate-buffered saline in 4 C, centrifuged, and resuspended in 20 mM Tris-HCl, pH 7.5, 25 mM sodium fluoride, 1 mM EDTA, containing a protease inhibitor cocktail (Roche Molecular Biochemicals). Cells were incubated on ice for 20 min, followed by 30 strokes in a Dounce homogenizer, and centrifuged at 100,000×g for 30 min. The supernatant was collected as the soluble, cytoplasmic fraction and electrophoresised in 10% SDS-polyacrylamide gels. […]

[2] = system: TCF-dependent transcription; experiment: TCF-dependent transcription, TOPFLASH luciferase assay in P19CL6 cells; conditions: DMSO treatment for 4 days
Method: Cells were seeded and cultured as above and transfected 1 day after plating, using in serum-free αMEM for 6 hr. Transfections contained 0.5 μg TOPFLASH or 0.1 μg pRL-CMV as the co-transfected control. Medium containing 10% FBS with or without DMSO changed 6 and 48 hr after transfection. Cells were lysed 4 days after DMSO treatment and luciferase assayed using the Dual-Luciferase system (Promega). Firefly luciferase activity, indicating TCF-dependent transcription, was normalized to the Renilla luciferase activity of each extract. TOPFLASH activity induced by Wnt3A CM versus control CM was measured after 18 hr. Activity of the GSK-3βA9 expression vector was corroborated by transient transfection in 293T cells: cells were passaged at a 1:2.5 dilution into 24-well dishes, and TOPFLASH, pRL-CMV, and PGK-Wnt3A were co-transfected by calcium-phosphate precipitation along with pcDNA3-GSK-3βA9-HA versus the empty vector control (Jordan et al., 1996). Twenty-four hrs after transfection, the medium was changed to Dulbecco's modified Eagle's medium (DMEM) supplemented with 0.2% BSA. Forty-eight hrs after transfection, cells were lysed and luciferase activities were assayed.

P19CL6 cells [3] = experiment: Cardiac-specific gene expression by QRT-PCR in differentiating P19CL6 cells; parameters: expression of Nkx2.5, GATA4, Tbx5, BMP2, BMP4: dose or concentration left out as unconfirmed
Method: as §1
RNA was isolated using TRIzol (Invitrogen). RNA (0.1 μg) was subjected to quantitative RT-PCR using the TaqMan One-step RT-PCR Master Mix Biosystems); the RT and PCR were run sequentially using a 7700 Sequence Detector (Applied Biosystems). Copy number for each transcript was expressed relative to that of glyceraldehyde-3-phosphate dehydrogenase (GAPDH), used as a constitutive control. RT-PCR for FGF8 and β-actin was done as described by Lee et al., 2000).

P19CL6 cells [4] = experiment: Sarcomeric MHC immunostaining (MF20-positive cells); parameters: dose or concentration left out as unconfirmed; conditions: LiCl, day 12
Method: as §2

| Structure (SMILES) | spontaneous beating visible (P19CL6 cells [1]; 1% DMSO treatment) [days] | phosphorylated β-catenin (β-catenin; DMSO treatment for 3 days, immunoblotting and immunocytochemistry) | soluble (cytosolic) β-catenin level (β-catenin; DMSO, day 3, Western blot) | increase in luciferase activity (TCF-dependent transcriptional activity) [2] [fold] | time to expression of Nkx2.5, GATA4, MEF2C, and Tbx5 as early stage markers (P19CL6 cells [3]; 1% DMSO treatment, QRT-PCR) [days] | Wnt3A and Wnt8A induced as early as (P19CL6 cells [3]; after DMSO treatment, expression greatest on day 3) [days] | spontaneous beating (P19CL6 cells [1]; treated alone, without DMSO) | MF20-positive cells (P19CL6 cells [4]) | expression of Nkx2.5, GATA4, Tbx5, BMP2, BMP4 (P19CL6 cells [3]; d 5, QRT-PCR) | effect on each of the early cardiac markers and on sarcomeric MHC (P19CL6 cells [3]; in the absence of DMSO) |
| --- | --- | --- | --- | --- | --- | --- | --- | --- | --- | --- |
| C[S+](C)[O-] [DMSO] | 9 to 10 | decreased | accumulation of soluble β-catenin | 9 | 3 to 8 | 2 |  |  |  |  |
| [Cl-].[Li+] [LiCl] |  |  |  |  |  |  | did not show spontaneous beating | significantly increased | significantly increased | inductive effect |
